Test [1] deals with chronic relapsing EAE model of mouse. It counts as in vivo. How it is done:
Compound A was selected as a test substance, and salazosulfapyridine (hereinafter referred to as SASP) was selected as a comparative control agent. Compound A was administered at a dose of 30 mg/kg (Compound A group). SASP was administered at a dose of 300 mg/kg (SASP group). In control group and normal group (no induction treatment group), 0.5% methyl cellulose aqueous solution used as vehicle of the administration liquid was administered.
The chronic relapsing EAE was induced in SJL/J female mice by immunization with partial PLP peptide. Briefly, an emulsion was prepared by mixing equivalent volumes of phosphate buffer saline containing 1 mg/mL of the peptide corresponding to residues 139-151 of the PLP and Freund's […] adjuvant containing 4 mg/mL of killed M. Tuberculosis H37Ra. The emulsion was intradermically injected (50 μg of PLP per mouse) into four positions on the back for immunization, and additionally, on the day of the immunization and two days after, pertussis toxin was intraperitoneally injected in each amount of 150 ng per mouse, twice in total. The vehicle, the test substance or the reference article was orally administered continuously for 44 days once daily from the day of the immunization.
In the present experiment, paralysis was developed to reach a peak on the 14th to 16th day after the immunization, and the symptom remitted once, but relapsed to reach a peak on the 38th day.
The symptom was evaluated in accordance with a report of Weaver et al. (FASEB Journal, 2005, vol. 19, p. 1668). Briefly, paralysis of all of the four limbs and the tail was evaluated by scoring in 4 ranks of scores of 0 to 3 and in 3 ranks of scores of 0 to 2, respectively, and the sum of the scores was determined as EAE score (the maximum score 14).
Incidence rates (the number of mice having developed the disease/the number of used mice) and the average of EAE score of each group were measured at the period of initial onset (on the 15th day after the immunization) and at the period of relapse (on the 38th day after the immunization).

For test [2], the system named is chronic constriction nerve injury model rat. As to the kind of experiment: Chronic constriction nerve injury model rat, mechanical allodynia by von Frey test. The format is in vivo. How it is done:
This test was performed by referring to a method of Bennett et al. (Pain, 1988, vol. 33, pp. 87-107). Compound A was used as a test substance, and celecoxib, one of NSAIDs, was used as a reference substance. The compound A was administered at a dose of 30 mg/kg (Compound A group). The celecoxib was administered at a dose of 30 mg/kg (celecoxib group). To a control group, a 0.5% methyl cellulose aqueous solution used as a vehicle was administered. Under anesthetic with Somnopentyl (manufactured by Kyoritsu Seiyaku Corporation, about 52 mg/kg, intraperitoneal administration), nerve constriction operation was performed on the left sciatic nerves of Sprague-Dawley male rats (7 weeks old). Briefly, a left femoral region of each rat was dissected, the sciatic nerve was detached from tissues around, and the nerve was loosely constricted with a 4-0 silk suture (manufactured by Eticon Inc., surgical silk) for having narrow parts in four positions at intervals of about 1 mm. The muscular layer and the skin were respectively sutured, and the operation region was disinfected. The vehicle, the test substance or the reference substance was orally administered once a day continuously for 14 days from the 16th day after the operation. From the start of the administration, pain sense (mechanical allodynia) of the footpad of left hind paw was evaluated by von Frey test. […] The evaluation of the pain sense was expressed as an average of pain threshold values.

The text below walks through data of patent US9918963B2, “Therapeutic agent for disease based on inhibitory effect of macrophage migration inhibitory factor” (TOYAMA CHEMICAL CO., LTD., priority 2013, dated 2018).

Regarding `CS(=O)(=O)Nc1cc2occ(NC=O)c(=O)c2cc1Oc1ccccc1` [Compound A, N-[7-[(methylsulfonyl)amino]-4-oxo-6-phenoxy-4H-1-benzopyran-3-yl]formamide], the “EAE score, period of initial onset” value in test [1] (15th day after immunization, average, maximum score 14, oral once daily (Compound A 30 mg/kg, SASP 300 mg/kg)) is on record as 1.4. Moreover, in test [1] (15th day after immunization, mice having developed the disease/mice used, oral once daily from immunization (Compound A 30 mg/kg, SASP 300 mg/kg)), the “Incidence rate, period of initial onset” value was 1/8. Further, in test [1] (38th day after immunization, average, maximum score 14, oral once daily (Compound A 30 mg/kg, SASP 300 mg/kg)), the “EAE score, period of relapse” value worked out at 0.3. Further, the “Incidence rate, period of relapse” value in test [1] (38th day after immunization, mice having developed the disease/mice used, oral once daily (Compound A 30 mg/kg, SASP 300 mg/kg)) was 2/8. Moreover, in test [1] (oral once daily for 44 days from immunization (Compound A 30 mg/kg, SASP 300 mg/kg)), the “Effect on incidence rate / EAE score, paralysis of chronic relapsing EAE” value is given as “suppressed the occurrence of paralysis”. Moreover, the “Effect on the symptom of mechanical allodynia” value in test [2] (30 mg/kg orally once a day for 14 days, compared with control group) is on record as “inhibited the symptom of the mechanical allodynia”. In test [2] (von Frey test, left hind paw, 30 mg/kg orally once a day for 14 days from the 16th day after operation), the “Average of pain thresholds, 30th day after operation” value was determined as 13.5 g. Also, the “Average of pain thresholds, 15th day after operation” value in test [2] (von Frey test, left hind paw, day before start of administration, 30 mg/kg groups) is reported as 2.4 g.
